Test results: patent US20260224609A1, “TREATMENT OF GUT INFLAMMATORY DISEASES” (priority 2023, published 2026)

What was measured:
ileo-cecal lesions = experiment: IBD model: ileo-cecal resection in transgenic HLA-B27 rats; format: in vivo; conditions: 6 weeks after resection; treatment from week 8
Procedure: Transgenic HLA-B27 rats have been selected by the inventors as a model for ileo-cecal lesions in Humans (for instance common in Crohn's disease).
Twelve weeks-old rats (40, in five pools) are treated for the resection of distal ileum with proximal colon and the inflammation level was evaluated 6 weeks thereafter.

[1] = system: 2,4,6-trinitrobenzene sulfonic acid (TNBS)-induced colitis; experiment: TNBS-induced colitis in rats; format: in vivo, rats (Sprague Dauwley)
Procedure: The inventors have developed a model based on 2,4,6-trinitrobenzene sulfonic acid (TNBS)-induced colitis in rats (Sprague Dauwley); 80 mg/kg. Colorectal distension is measured 14 days prior to the TNBS induction, as well as 21, 35 and 49 days after the TNBS induction.
The bacteria B. breve and La have been formulated in sticks for ingestion; the stability having been validated.

Caco-2 cells = experiment: Toxicity test CCK-8 on Caco-2 cells; conditions: inflammatory conditions, LPS 1 mg/ml
Excerpt: (§1) A cellular model with HT-29 and Caco-2 cells has been established.

HT-29 = experiment: Toxicity test CCK-8 on HT-29 cells under LPS; conditions: inflammatory conditions, LPS 10 ng/ml
Excerpt: as §1

Candida albicans = experiment: Candida albicans-induced colitis model; format: in vivo, Balb/C female mice; conditions: after 9 days; 150 mg/kg, curative
Procedure: The inventors have selected a group of Balb/C female mice under estradiol (2.5 mg/kg; 1 injection every 3 days, for 12 days) to develop a Candida albicans-induced colitis model.
The prevention treatment started during estradiol administration, whereas the curative treatments started 2 days after Candida inoculation. The mice were sacrificed 14 days after the inoculation.

Nc1ccc(O)c(C(=O)O)c1 [pentasa]
post-operative relapses (ileo-cecal lesions): markedly reduced

Oc1cc(O)cc(O)c1 [Spasfon, Phloroglucinol]
macroscopic evaluation (Wallace scoring) ([1]; TNBS condition: 2.25): 1.56
histological analysis of the inflammation (Ameho) ([1]; TNBS+vehicle: 2.00): 1.56
pain threshold ([1]; also with Vitamin D): did not increase the pain threshold

C=C1CC[C@H](O)C/C1=C/C=C1\CCC[C@]2(C)[C@@H]([C@H](C)CCCC(C)C)CC[C@@H]12 [Vitamin D, cholecalciferol (Vitamin D3)]
toxicity (CCK-8) (Caco-2 cells): no toxicity
toxicity (CCK-8) (HT-29): no toxicity

OC(Cn1cncn1)(Cn1cncn1)c1ccc(F)cc1F [Fluconazole]
mice remaining infected (Candida albicans): no mice remaining infected
